The values below come from patent publication US11046686B2, “Thiadiazole IRAK4 compounds” (Gilead Sciences, Inc., priority 2018, dated 2021).

This assay has as its system TNFα. The assay is described as follows: IRAK4 Monocyte TNFα Cell Based Assay. Also noted: species or system human. In outline:
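Human monocytes (5,000/well) pretreated with compound 1 h at 37 °C (0.1% DMSO final), then stimulated with 50 pg/ml LPS for 4 h. Secreted TNFα measured by TR-FRET two-antibody detection after overnight incubation at room temperature; % control relative to unstimulated and LPS-stimulated wells.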

Setting [1] is: human monocytes, second part of Table 2, compounds 33-343, unit inferred, read-out: EC50 MONO TNF HTRF.
The mark [2] stands for this setting: Homo sapiens, Monocyte, read-out: EC50 MONO TNF HTRF.

Read-outs that look alike come from different tables or passages of the source.

As a reminder, the EC50 is the concentration that produces a half-maximal response.

In the case of `C[C@H](C#N)Nc1cc(-c2ccc3cc(C#N)cnn23)ncc1-c1nnc(N2CCC(C)(O)CC2)s1` [Example 180], the EC50 under setting [1] was 6.8 nM.
Same read-out and setting: as for `CC(C)Nc1cc(-c2ccc3cc(C#N)cnn23)ncc1-c1nnc(N2CC3CC(C2)N3C(=O)C2CCN(C)CC2)s1` [Example 117], the figure is 11.1 nM.
Same read-out and setting: as for `CC(C)Nc1cc(-c2ccc3cc(C#N)cnn23)ncc1-c1nnc(N2C[C@H]3CC[C@@H](C2)[C@@H]3N)s1` [Example 60, 7-(5-(5-((1R,5S,8s)-8-amino-3-azabicyclo[3.2.1]octan-3-yl)-1,3,4-thiadiazol-2-yl)-4-(isopropylamino)pyridin-2-yl)pyrrolo[1,2-b]pyridazine-3-carbonitrile], the figure is 8.5 nM.
As to `CC(=O)NC1CCC2(CC1)CN(c1nnc(-c3cnc(-c4ccc5cc(C#N)cnn45)cc3NC3(C)COC3)s1)C2` [Example 99], the EC50 under setting [1] was found to be 5.8 nM.
The same measure, in the same setting: as for `CC(=O)NC[C@H]1C[C@@H](c2nnc(-c3cnc(-c4ccc5cc(C#N)cnn45)cc3NC(C)C)s2)C1` [Example 289, N-(((1s,3s)-3-(5-(6-(3-cyanopyrrolo[1,2-b]pyridazin-7-yl)-4-(isopropylamino)pyridin-3-yl)-1,3,4-thiadiazol-2-yl)cyclobutyl)methyl)acetamide], the figure is 21.4 nM; as for `COC(=O)NC[C@H]1C[C@H](Nc2cc(-c3ccc4cc(C#N)cnn34)ncc2-c2nnc(N3C[C@H]4CC[C@@H](C3)[C@@H]4NC(C)=O)s2)C1` [Example 52], 4.1 nM.
Take `CC(=O)NC1CCN(C(=O)c2nnc(-c3cnc(-c4ccc5cc(C#N)cnn45)cc3NC(C)C)s2)CC1` [Example 8, N-(1-(5-(6-(3-cyanopyrrolo[1,2-b]pyridazin-7-yl)-4-(isopropylamino)pyridin-3-yl)-1,3,4-thiadiazole-2-carbonyl)piperidin-4-yl)acetamide]: for the setting “Homo sapiens, Monocyte, human monocytes, LPS stimulated, compounds 1-32, read-out: EC50 TNF”, the EC50 came out at 7540 nM.
Regarding `CC(C)Nc1cc(-c2ccc3cc(C#N)cnn23)ncc1-c1nnc(N2CCC(O)(C(F)(F)F)CC2)s1` [Example 172, 7-(5-(5-(4-hydroxy-4-(trifluoromethyl)piperidin-l-yl)-1,3,4-thiadiazol-2-yl)-4-(isopropylamino)pyridin-2-yl)pyrrolo[1,2-b]pyridazine-3-carbonitrile], under setting [1], the EC50 was found to be 34.4 nM.
Take `CC1(Nc2cc(-c3ccc4cc(C#N)cnn34)ncc2-c2nnc(N3C[C@H]4CC[C@@H](C3)[C@H]4O)s2)COC1` [Example 149, 7-(5-(5-((1R,5S,8r)-8-hydroxy-3-azabicyclo[3.2.1]octan-3-yl)-1,3,4-thiadiazol-2-yl)-4-((3-methyloxetan-3-yl)amino)pyridin-2-yl)pyrrolo[1,2-b]pyridazine-3-carbonitrile]: the EC50 under setting [1] stood at 4.9 nM.
Same read-out and setting: as for `CC(=O)N1CCN(c2nnc(-c3cnc(-c4ccc5cc(C#N)cnn45)cc3NC(C)C)s2)CC1` [Compound 232, 7-(5-(5-(4-acetylpiperazin-l-yl)-1,3,4-thiadiazol-2-yl)-4-(isopropylamino)pyridin-2-yl)pyrrolo[1,2-b]pyridazine-3-carbonitrile], the figure is 7.4 nM; as for `CC(=O)N1C2CCC1CN(c1nnc(-c3cnc(-c4ccc5cc(C#N)cnn45)cc3NC3(C)COC3)s1)C2` [Compound 264], 2.7 nM; as for `CC(=O)N[C@@H]1[C@@H]2CC[C@H]1CN(c1nnc(-c3cnc(-c4ccc5cc(C#N)cnn45)cc3N[C@H](C)C#N)s1)C2` [Example 53, N-((1R,5S,8S)-3-(5-(4-(((R)-1-cyanoethyl)amino)-6-(3-cyanopyrrolo[1,2-b]pyridazin-7-yl)pyridin-3-yl)-1,3,4-thiadiazol-2-yl)-3-azabicyclo[3.2.1]octan-8-yl)acetamide], 0.6 nM.
As for `CN1CCC(C(=O)N2C3CC2CN(c2nnc(-c4cnc(-c5ccc6cc(C#N)cnn56)cc4NC4(C)COC4)s2)C3)CC1` [Example 118, 7-(4((3-methyloxetan-3-yl)amino)-5-(5-(6-(1-methylpiperidine-4-carbonyl)-3,6-diazabicyclo[3.1.1]heptan-3-yl)-1,3,4-thiadiazol-2-yl)pyridin-2-yl)pyrrolo[1,2-b]pyridazine-3-carbonitrile], the EC50 under setting [2] is 29 nM.
For the compound `CC(C)(O)C(=O)N[C@@H]1[C@@H]2CC[C@H]1CN(c1nnc(-c3cnc(-c4ccc5cc(C#N)cnn45)cc3NC3CCOCC3)s1)C2` [Example 101, N-((1R,5S,8s)-3-(5-(6-(3-cyanopyrrolo[1,2-b]pyridazin-7-yl)-4-((tetrahydro-2H-pyran-4-yl)amino)pyridin-3-yl)-1,3,4-thiadiazol-2-yl)-3-azabicyclo[3.2.1]octan-8-yl)-2-hydroxy-2-methylpropanamide], the EC50 under setting [1] is 1.2 nM.
The same measure, in the same setting: as for `CC(=O)NC1CCC2(CC1)CN(c1nnc(-c3cnc(-c4ccc5cc(C#N)cnn45)cc3NC3COC3)s1)C2` [Example 78, N-(2-(5-(6-(3-cyanopyrrolo[1,2-b]pyridazin-7-yl)-4-(oxetan-3-ylamino)pyridin-3-yl)-1,3,4-thiadiazo1-2-yl)-2-azaspiro[3.5]nonan-7-yl)acetamide], the figure is 8.9 nM.
With `CC(C)Nc1cc(-c2ccc3cc(C#N)cnn23)ncc1-c1nnc([C@@H]2CC[C@H]2C(C)(C)O)s1` (racemic) [Example 88, 7-(5-(5-((1,2-trans)-2-(2-hydroxypropan-2-yl)cyclobutyl)-1,3,4-thiadiazol-2-yl)-4-(isopropylamino)pyridin-2-yl)pyrrolo[1,2-b]pyridazine-3-carbonitrile], the EC50 (Homo sapiens, Monocyte, human monocytes, second part of Table 2, compounds 33-343, unit inferred, read-out: EC50 MONO TNF HTRF) was determined as 27.1 nM.
In the case of `CC(=O)N1CCC2(CC1)CN(c1nnc(-c3cnc(-c4ccc5cc(C#N)cnn45)cc3NC3COC3)s1)C2` [Example 75, 7-(5-(5-(7-acetyl-2,7-diazaspiro[3.5]nonan-2-yl)-1,3,4-hiadiazol-2-yl)-4-(oxetan-3-ylamino)pyridin-2-yl)pyrrolo[1,2-b]pyridazine-3-carbonitrile], the EC50 under setting [1] is 3.2 nM.
On to `CC(C)Nc1cc(-c2ccc3cc(C#N)cnn23)ncc1-c1nnc([C@H]2CC[C@H](NC(=O)C(C)(C)O)CC2)s1` [Example 315, N-((1r,4r)-4-(5-(6-(3-cyanopyrrolo[1,2-b]pyridazin-7-yl)-4-(isopropylamino)pyridin-3-yl)-1,3,4-thiadiazol-2-yl)cyclohexyl)-2-hydroxy-2-methylpropanamide], for which the EC50 under setting [1] was 10.9 nM.
Still for that read-out and setting: with `CC(=O)NC[C@H]1C[C@H](c2nnc(-c3cnc(-c4ccc5cc(C#N)cnn45)cc3NC(C)C)s2)C1` [Example 290, N-(((1r,3r)-3-(5-(6-(3-cyanopyrrolo[1,2-b]pyridazin-7-yl)-4-(isopropylamino)pyridin-3-yl)-1,3,4-thiadiazol-2-yl)cyclobutyl)methyl)acetamide] the figure was 16.2 nM; with `CC(=O)N[C@@H]1[C@@H]2C[C@H]1CN(c1nnc(-c3cnc(-c4ccc5cc(C#N)cnn45)cc3NC3COC3)s1)C2` [Example 179, N-((1R,5S,6s)-3-(5-(6-(3-cyanopyrrolo[1,2-b]pyridazin-7-yl)-4-(oxetan-3-ylamino)pyridin-3-yl)-1,3,4-thiadiazol-2-yl)-3-azabicyclo[3.1.1]heptan-6-yl)acetamide], 6.4 nM; with `CC(=O)NC1CCC2(CC1)CN(c1nnc(-c3cnc(-c4ccc5cc(C#N)cnn45)cc3N[C@H](C)C#N)s1)C2` [Example 77], 3.9 nM.
Same read-out and setting: as for `CC(=O)N[C@H]1CC[C@H](c2nnc(-c3cnc(-c4ccc5cc(C#N)cnn45)cc3N[C@H]3C[C@@](C)(O)C3)s2)CC1` [Compound 243, N-((1R,4r)-4-(5-(6-(3-cyanopyrrolo[1,2-b]pyridazin-7-yl)-4-(((1s,3S)-3-hydroxy-3-methylcyclobutyl)amino)pyridin-3-yl)-1,3,4-thiadiazol-2-yl)cyclohexyl)acetamide], the figure is 6.4 nM.
Regarding `CC(=O)N1C2CC1CN(c1nnc(-c3cnc(-c4ccc5cc(C#N)cnn45)cc3NC3(C)COC3)s1)C2` [Example 111, 7-(5-(5-(6-acetyl-3,6-diazabicyclo[3.1.1]heptan-3-yl)-1,3,4-thiadiazol-2-yl)-4-((3-methyloxetan-3-yl)amino)pyridin-2-yl)pyrrolo[1,2-b]pyridazine-3-carbonitrile], the EC50 under setting [2] was 8.8 nM.
Take `CC(=O)N1C[C@H]2COC[C@@H](C1)N2c1nnc(-c2cnc(-c3ccc4cc(C#N)cnn34)cc2NC(C)C)s1` [Compound 266]: under setting [1], the EC50 came to 3.2 nM.
Same read-out and setting: with `CC(C)Nc1cc(-c2ccc3cc(C#N)cnn23)ncc1-c1nnc(C(=O)N[C@H]2C[C@H](O)C2)s1` [Example 213, 5-(6-(3-cyanopyrrolo[1,2-b]pyridazin-7-yl)-4-(isopropylamino)pyridin-3-yl)-N-((1r,3r)-3-hydroxycyclobutyl)-1,3,4-thiadiazole-2-carboxamide] the figure was 1830 nM; with `CC(C)Nc1cc(-c2ccc3cc(C#N)cnn23)ncc1-c1nnc(C(=O)N2CC[C@@H](NC(=O)C3CC3)C2)s1` [Example 47], 5680 nM; with `CC(=O)N1CC2CCC(C1)N2c1nnc(-c2cnc(-c3ccc4cc(C#N)cnn34)cc2NC(C)C)s1` [Compound 260, 7-(5-(5-(3-acety1-3,8-diazabicyclo[3.2.1]octan-8-yl)-1,3,4-thiadiazol-2-yl)-4-(isopropylamino)pyridin-2-yl)pyrrolo[1,2-b]pyridazine-3-carbonitrile], 15.8 nM.
Take `CC(C)Nc1cc(-c2ccc3cc(C#N)cnn23)ncc1-c1nnc(N2C[C@H]3CC[C@@H](C2)[C@@H]3O)s1` [Example 154, 7-(5-(5-((1R,5S,8s)-8-hydroxy-3-azabicyclo[3.2.1]octan-3-yl)-1,3,4-thiadiazol-2-yl)-4-(isopropylamino)pyridin-2-yl)pyrrolo[1,2-b]pyridazine-3-carbonitrile]: under setting [1], the EC50 turned out to be 13.3 nM.
`CC(=O)NC[C@H]1CCCN1C(=O)c1nnc(-c2cnc(-c3ccc4cc(C#N)cnn34)cc2NC(C)C)s1` [Example 42]: the EC50 under setting [1] is 35.7 nM.
For `CC(=O)N[C@@H]1CN(c2nnc(-c3cnc(-c4ccc5cc(C#N)cnn45)cc3NC(C)C)s2)CC12CC2` [Compound 324], the EC50 under setting [1] is 19.1 nM.
